Here are results for 35 molecules from patent publication US7851474B2, “Dipiperazinyl ketones and related analogues” (Neurogen Corporation, priority 2005, dated 2010).

The term Ki denotes the dissociation constant of the complex between target and ligand, obtained from inhibition or displacement.

T1 sequence (Q9Y5N1 with tags, fused parts or gaps E19D): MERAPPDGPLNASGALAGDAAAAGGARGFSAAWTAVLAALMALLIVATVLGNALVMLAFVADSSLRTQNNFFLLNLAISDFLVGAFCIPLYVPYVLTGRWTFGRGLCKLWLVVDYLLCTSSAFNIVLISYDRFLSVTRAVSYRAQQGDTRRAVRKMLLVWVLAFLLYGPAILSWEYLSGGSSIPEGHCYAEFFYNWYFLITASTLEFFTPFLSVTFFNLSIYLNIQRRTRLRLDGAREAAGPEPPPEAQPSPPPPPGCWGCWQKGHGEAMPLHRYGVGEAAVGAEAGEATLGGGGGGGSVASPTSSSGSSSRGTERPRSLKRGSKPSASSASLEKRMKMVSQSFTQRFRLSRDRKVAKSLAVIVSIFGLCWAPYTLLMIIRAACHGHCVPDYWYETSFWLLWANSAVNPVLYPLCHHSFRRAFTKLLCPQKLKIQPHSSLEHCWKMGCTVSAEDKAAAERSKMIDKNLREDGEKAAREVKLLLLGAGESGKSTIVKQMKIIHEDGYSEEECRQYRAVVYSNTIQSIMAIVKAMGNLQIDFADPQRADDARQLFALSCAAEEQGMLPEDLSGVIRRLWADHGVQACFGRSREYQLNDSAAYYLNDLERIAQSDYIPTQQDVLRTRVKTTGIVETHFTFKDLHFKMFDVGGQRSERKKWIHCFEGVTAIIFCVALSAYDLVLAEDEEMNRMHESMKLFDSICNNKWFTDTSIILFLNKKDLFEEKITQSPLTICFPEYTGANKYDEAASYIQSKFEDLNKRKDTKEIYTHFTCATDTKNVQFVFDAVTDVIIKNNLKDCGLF

The first experiment addresses T1, chimeric human H3 receptor (Homo sapiens, UniProt Q9Y5N1, E19D).
T1 construct: made in house; host or cells: Sf9 insect cells (baculovirus infection); P2 membrane preparation
Description: Chimeric human H3 receptor GTP binding assay (agonist-stimulated GTP-gamma35S binding, Example 7). Type of experiment: biochemical.
Conditions: not given
The method, boiled down:
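IC50 values come from non-linear regression of dose-response curves of filter-bound GTP-gamma^35S, counted by scintillation. Membranes were from infected Sf9 cells carrying receptor plus G-protein subunits, 35 μg/tube, with 10 μM GDP present.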
With `CC(C)N1CCN(C(=O)CN2CCN(c3ccc4c(c3)OCO4)CC2)CC1` [Compound 258, 1-(1,3-benzodioxol-5-yl)-4-[2-(4-isopropylpiperazin-1-yl)-2-oxoethyl]piperazine], the Ki was < 1000 nM.

Staying with this experiment, now noted: "*" in Ki of Table II; assay of Example 7; read-out: Ki.
`O=C(CN1CCC(N2CCCCCC2)CC1)N1CCN(C2CCC2)CC1` [Compound 479, 1-{1-[2-(4-cyclobutylpiperazin-1-yl)-2-oxoethyl]piperidin-4-yl}azepane]: the Ki was < 1000 nM.

The experiment is the same for the next values; noted with them: Table II "Ki", symbol "*": Ki in the assay of Example 7; read-out: Ki.
Take `O=C(CN1CCN(c2cnc(-c3ccc(Cl)c(F)c3)cn2)CC1)N1CCN(C2CCC2)CC1` [Compound 903, 2-(4-chloro-3-fluorophenyl)-5-{4-[2-(4-cyclobutylpiperazin-1-yl)-2-oxoethyl]piperazin-1-yl}pyrazine]: the Ki was < 1000 nM.

On to `CCC(C)N1CCN(C(=O)CN2CCN(c3ccc(OC)cc3)CC2)CC1` (centres unmarked) [Compound 881, 1-sec-butyl-4-{[4-(4-methoxyphenyl)piperazin-1-yl]acetyl}piperazine], for which the Ki is < 1000 nM.

Consider `CCOc1cccc(-c2cnc(N3CCN(CC(=O)N4CCN(C5CCC5)CC4)CC3)cn2)c1` [Compound 935, 2-{4-[2-(4-cyclobutylpiperazin-1-yl)-2-oxoethyl]piperazin-1-yl}-5-(3-ethoxyphenyl)pyrazine], for which the Ki is < 1000 nM.

Still in this experiment, the particulars now being: Table II, "*" in Ki; assay of Example 7; read-out: Ki.
`O=C(CN1CCN(c2ccc(-c3cccc(F)c3)cc2)CC1)N1CCN(C2CCC2)CC1` [Compound 753, 1-cyclobutyl-4-{[4-(3′-fluorobiphenyl-4-yl)piperazin-1-yl]acetyl}piperazine]: the Ki was < 1000 nM.

Regarding `CCOc1ccccc1-c1ccc(N2CCN(CC(=O)N3CCN(C4CCC4)CC3)CC2)cc1` [Compound 700, 1-cyclobutyl-4-{[4-(2′-ethoxybiphenyl-4-yl)piperazin-1-yl]acetyl}piperazine], the Ki is < 1000 nM.

The experiment is the same for the next values; noted with them: Table II; assay of Example 7; "*" in Ki; read-out: Ki.
Turning to `CCCNC(=O)c1cccc(N2CCN(CC(=O)N3CCN(C4CCC4)CC3)CC2)c1` [Compound 1072, 3-{4-[2-(4-cyclobutylpiperazin-1-yl)-2-oxoethyl]piperazin-1-yl}-N-propylbenzamide], the Ki is < 1000 nM.

Consider `COc1ccc(N2CCN(CC(=O)N3CCN(C(C)C)CC3)CC2C)cc1` (centres unmarked) [Compound 1111, 4-[2-(4-isopropylpiperazin-1-yl)-2-oxoethyl]-1-(4-methoxyphenyl)-2-methylpiperazine], for which the Ki was < 1000 nM.

As to `O=C(CN1CCN(c2cnc(-c3ccc(C(F)(F)F)cc3)cn2)CC1)N1CCN(C2CCC2)CC1` [Compound 975, 2-{4-[2-(4-cyclobutylpiperazin-1-yl)-2-oxoethyl]piperazin-1-yl}-5-[4-(trifluoromethyl)phenyl] pyrazine], the Ki was < 1000 nM.

With `CCCNC(=O)c1ccc(N2CCN(CC(=O)N3CCN(C4CCC4)CC3)CC2)cc1` [Compound 1132, 4-{4-[2-(4-cyclobutylpiperazin-1-yl)-2-oxoethyl]piperazin-1-yl}-N-propylbenzamide], the Ki is < 1000 nM.

As for `COc1ccc(C)cc1-c1ccc(N2CCN(CC(=O)N3CCN(C4CCC4)CC3)CC2)nn1` [Compound 1046, 3-{4-[2-(4-cyclobutylpiperazin-1-yl)-2-oxoethyl]piperazin-1-yl}-6-(2-methoxy-5-methylphenyl) pyridazine], the Ki was < 1000 nM.

For `CCCC(C)NC(=O)c1cccc(N2CCN(CC(=O)N3CCN(C4CCC4)CC3)CC2)c1` (centres unmarked) [Compound 1082, 3-{4-[2-(4-cyclobutylpiperazin-1-yl)-2-oxoethyl]piperazin-1-yl}-N-(1-methylbutyl)benzamide], the Ki is < 1000 nM.

Regarding `CCN1CCN(C(=O)CN2CCN(c3ccc(OC)cc3)C(C)C2)CC1` (centres unmarked) [Compound 1110, 4-[2-(4-ethylpiperazin-1-yl)-2-oxoethyl]-1-(4-methoxyphenyl)-2-methylpiperazine], the Ki was < 1000 nM.

Consider `O=C(CN1CCN(c2ccc(C(=O)N3CCOCC3)cc2)CC1)N1CCN(C2CCC2)CC1` [Compound 1093, 4-(4-{4-[2-(4-cyclobutylpiperazin-1-yl)-2-oxoethyl]piperazin-1-yl}benzoyl)morpholine], for which the Ki is < 1000 nM.

Consider `O=C(CN1CCN(c2ccc(-c3ccccc3C(F)(F)F)nn2)CC1)N1CCN(C2CCC2)CC1` [Compound 1056, 3-{4-[2-(4-cyclobutylpiperazin-1-yl)-2-oxoethyl]piperazin-1-yl}-6-[2-(trifluoromethyl)phenyl] pyridazine], for which the Ki is < 1000 nM.

With `CCC(C)CNC(=O)c1cccc(N2CCN(CC(=O)N3CCN(C4CCC4)CC3)CC2)c1` (centres unmarked) [Compound 1071, 3-{4-[2-(4-cyclobutylpiperazin-1-yl)-2-oxoethyl]piperazin-1-yl}-N-(2-methylbutyl)benzamide], the Ki is < 1000 nM.

For `O=C(CN1CCN(c2cnc(-c3ccc4c(c3)OCCO4)cn2)CC1)N1CCN(C2CCC2)CC1` [Compound 947, 2-{4-[2-(4-cyclobutylpiperazin-1-yl)-2-oxoethyl]piperazin-1-yl}-5-(2,3-dihydro-1,4-benzodioxin-6-yl)pyrazine], the Ki is < 1000 nM.

On to `COc1cc(-c2cnc(N3CCN(CC(=O)N4CCN(C5CCC5)CC4)CC3)cn2)cc(OC)c1OC` [Compound 943, 2-{4-[2-(4-cyclobutylpiperazin-1-yl)-2-oxoethyl]piperazin-1-yl}-5-(3,4,5-trimethoxyphenyl)pyrazine], for which the Ki is < 1000 nM.

`O=C(CN1CCN(c2cnc(-c3cc(F)ccc3F)cn2)CC1)N1CCN(C2CCC2)CC1` [Compound 960, 2-{4-[2-(4-cyclobutylpiperazin-1-yl)-2-oxoethyl]piperazin-1-yl}-5-(2,5-difluorophenyl)pyrazine]: the Ki was < 1000 nM.

The experiment is the same for the next values; noted with them: assay of Example 7; "*" in Ki of Table II; read-out: Ki.
As to `CC(=O)NC1CCN(CC(=O)N2CCN(C(C)C)CC2)C1` (centres unmarked) [Compound 1259, N-{1-[2-(4-isopropylpiperazin-1-yl)-2-oxoethyl]pyrrolidin-3-yl}acetamide], the Ki is < 1000 nM.

Consider `CCSc1ccc(C(=O)NC2CCN(CC(=O)N3CCN(C4CCC4)CC3)CC2)cc1` [Compound 1223, N-{1-[2-(4-cyclobutylpiperazin-1-yl)-2-oxoethyl]piperidin-4-yl}-4-(ethylthio)benzamide], for which the Ki is < 1000 nM.

`Cc1cc(C)cc(C(=O)NC2CCN(CC(=O)N3CCN(C4CCC4)CC3)CC2)c1` [Compound 1211, N-{1-[2-(4-cyclobutylpiperazin-1-yl)-2-oxoethyl]piperidin-4-yl}-3,5-dimethylbenzamide]: the Ki was < 1000 nM.

In the case of `CC(C)c1ccc(C(=O)NC2CCN(CC(=O)N3CCN(C4CCC4)CC3)CC2)cc1` [Compound 1219, N-{1-[2-(4-cyclobutylpiperazin-1-yl)-2-oxoethyl]piperidin-4-yl}-4-isopropylbenzamide], the Ki is < 1000 nM.

Take `O=C(NC1CCC1)c1ccc(N2CCN(CC(=O)N3CCN(C4CCC4)CC3)CC2)nc1` [Compound 1268, N-cyclobutyl-6-{4-[2-(4-cyclobutylpiperazin-1-yl)-2-oxoethyl]piperazin-1-yl}nicotinamide]: the Ki is < 1000 nM.

With `Cc1ccc(C(=O)NC2CCN(CC(=O)N3CCN(C4CCC4)CC3)CC2)cc1` [Compound 1217, N-{1-[2-(4-cyclobutylpiperazin-1-yl)-2-oxoethyl]piperidin-4-yl}-4-methylbenzamide], the Ki is < 1000 nM.

For the molecule `CCCc1ccc(C(=O)NC2CCN(CC(=O)N3CCN(C4CCC4)CC3)C2)cc1` (centres unmarked) [Compound 1234, N-{1-[2-(4-cyclobutylpiperazin-1-yl)-2-oxoethyl]pyrrolidin-3-yl}-4-propylbenzamide], the Ki is < 1000 nM.

`CC(C)(C)CC(=O)NC1CCN(CC(=O)N2CCN(C3CCC3)CC2)C1` (centres unmarked) [Compound 1252, N-{1-[2-(4-cyclobutylpiperazin-1-yl)-2-oxoethyl]pyrrolidin-3-yl}-3,3-dimethylbutanamide]: the Ki was < 1000 nM.

`N#Cc1ccc(N2CCN(CC(=O)N3CCN(C4CCCCC4)CC3)CC2)cc1` [Compound 1147, 4-{4-[2-(4-cyclohexylpiperazin-1-yl)-2-oxoethyl]piperazin-1-yl}benzonitrile]: the Ki is < 1000 nM.

`O=C(NC1CCCC1)c1ccc(N2CCN(CC(=O)N3CCN(C4CCC4)CC3)CC2)nc1` [Compound 1183, 6-{4-[2-(4-cyclobutylpiperazin-1-yl)-2-oxoethyl]piperazin-1-yl}-N-cyclopentylnicotinamide]: the Ki is < 1000 nM.

For the molecule `O=C(NC1CCN(CC(=O)N2CCN(C3CCC3)CC2)CC1)c1ccccc1` [Compound 1225, N-{1-[2-(4-cyclobutylpiperazin-1-yl)-2-oxoethyl]piperidin-4-yl}benzamide], the Ki was < 1000 nM.

Turning to `O=C(NC1CCCC1)c1ccc(N2CCN(CC(=O)N3CCN(C4CCC4)CC3)CC2)nn1` [Compound 1166, 6-{4-[2-(4-cyclobutylpiperazin-1-yl)-2-oxoethyl]piperazin-1-yl}-N-cyclopentylpyridazine-3-carboxamide], the Ki was < 1000 nM.

Take `COC(=O)c1ccc(N2CCN(CC(=O)N3CCN(C4CCC4)CC3)CC2)nc1` [Compound 1202, methyl 6-{4-[2-(4-cyclobutylpiperazin-1-yl)-2-oxoethyl]piperazin-1-yl}nicotinate]: the Ki is < 1000 nM.

Staying with this experiment, now noted: assay of Example 7; symbol * in column headed Ki of Table II; read-out: Ki.
As to `CC(=O)c1ccc(N2CCN(CC(=O)N3CCN(C4CCC4)CC3)CC2)cc1` [Compound 315, 1-(4-{4-[2-(4-cyclobutylpiperazin-1-yl)-2-oxoethyl]piperazin-1-yl}phenyl)ethanone], the Ki is < 1000 nM.

On to `O=C(CN1CCN(c2ccc(N3CCCC3=O)cc2)CC1)N1CCN(C2CCC2)CC1` [Compound 320, 1-(4-{4-[2-(4-cyclobutylpiperazin-1-yl)-2-oxoethyl]piperazin-1-yl}phenyl)pyrrolidin-2-one], for which the Ki is < 1000 nM.
